Results as given in article PMC5300040 (Environmental Science & Technology, 2016).
Like-named read-outs stand apart in the source and are kept apart here.

Tests used:
dog CYP2B11 = details: cited from earlier work
recombinant rat CYP2B1 = details: cited from earlier work
[1] = test system: liver microsomes prepared from male Sprague–Dawley rats; assay type: in vitro ADME, rat; details: for metabolite detection by GC–MS: 50 μM parent PCB, 2 h, 37 °C; for relative level of dihydroxylated metabolite: all rat liver microsomal preparations except PB-pretreated rats, GC-μECD
[2] = test system: liver microsomes from rats, dogs, guinea pigs, hamsters, monkeys and rabbits; assay type: in vitro ADME; details: for formation of monohydroxylated metabolite, GC–MS: all microsomal preparations investigated; for status of metabolite in incubations with liver microsomes of different species: dogs, guinea pigs, hamsters, monkeys, rabbits, all incubations
[3] = test system: liver microsomes from Cynomolgus monkeys (male); assay type: in vitro ADME; details: monkey liver microsomes, compared with other liver microsomes
[4] = Racemization of OH-PCB metabolites; assay type: physicochemical; details: CD column, GC-μECD; 300 °C for 2 h; methylated derivatives
[5] = test system: liver microsomes from untreated beagle dogs (female); assay type: in vitro ADME; details: female dog liver microsomes; 50 μM parent PCB, 2 h, 37 °C
[6] = test system: liver microsomes from golden Syrian hamsters (male); assay type: in vitro ADME; details: male hamster liver microsomes; 50 μM parent PCB, 2 h, 37 °C
[7] = microsomes from phenobarbital (PB) pretreated rats
[8] = microsomes from isoniazid (INH) pretreated rats

Row | SMILES | metabolite detection by GC–MS [1, 7] | formation of monohydroxylated metabolite, GC–MS [2] | status of metabolite in incubations with liver microsomes of different species [2] | EF after racemization [4] | relative level of dihydroxylated metabolite [1] | metabolite detection by GC–MS [1, 8] | further results
1 | Oc1cc(Cl)c(Cl)c(-c2c(Cl)ccc(Cl)c2Cl)c1Cl [5-OH-PCB 136, 2,2′,3,3′,6,6′-hexachlorobiphenyl-5-ol] | – | – | – | – | – | – | metabolite formed (dog CYP2B11): 4,5-dihydroxylated PCB 136 metabolite; metabolite formed (recombinant rat CYP2B1): 4,5-dihydroxylated PCB 136 metabolite
2 | Oc1ccc(Cl)c(-c2ccc(Cl)cc2Cl)c1Cl [OH-PCB 51, 2,2′,4,6′-tetrachlorobiphenyl-3′-ol] | major metabolite | formed | major metabolite | 0.46 ± 0.01 | – | – | extent of enantiomeric enrichment, comparison of congeners ([1]; incubations with rat liver microsomes): more pronounced enantiomeric enrichment compared to OH-PCB 102; rank order of EF values across species ([2]; EF = area E1/(area E1 + area E2), Chirasil-Dex column): monkey > rabbit ∼ guinea pig > hamster > rat > dog; extent of enantiomeric enrichment (EF) [3]: near racemic
3 | Oc1ccc(Cl)c(-c2cc(Cl)c(Cl)cc2Cl)c1Cl [OH-PCB 102, 2,2′,4,5,6′-pentachlorobiphenyl-3′-ol] | major metabolite | detected | major metabolite | 0.49 ± 0.01 | – | – | –
4 | Oc1cc(Cl)c(-c2ccc(Cl)cc2Cl)c(Cl)c1O [diOH-PCB 51, 3′,4′-dihydroxy-2,2′,4,6′-tetrachlorobiphenyl] | minor | – | – | – | minor metabolites | low levels | –
5 | Oc1cc(Cl)c(-c2cc(Cl)c(Cl)cc2Cl)c(Cl)c1O [diOH-PCB 102, 3′,4′-dihydroxy-2,2′,4,5,6′-pentachlorobiphenyl] | formation | – | – | – | minor metabolites | formed | metabolite detection by GC–MS ([1]; microsomes from corn oil (CO) treated rats): formed; metabolite detection by GC–MS [5]: formed; metabolite detection by GC–MS [6]: formed
